Assay results from patent publication EP1803452A1, “ESTER DERIVATIVE AND PHARMACEUTICAL USE THEREOF” (Japan Tobacco, Inc., priority 2004, dated 2006).

Columns and labels:
[1] = Metabolic stability test in liver S9; type: in vitro ADME; settings: pH 7.4, human liver S9 2 mg protein/mL, LC/MS; for remaining at 10 min: unchanged form after 10 minutes at 37°C, read-out: Remaining rate in human liver S9 (%/10min); for remaining at 1 h: unchanged form after 60 minutes at 37°C, read-out: Remaining rate in human liver S9 (%/60min)
Procedure, shortened: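 Compound from DMSO solution was incubated at 37°C with human liver S9 (final 2 mg protein/mL) in 100 mM potassium phosphate pH 7.4 with an NADPH-regenerating system for 0, 10 and 60 minutes. Reactions were stopped with acetonitrile/0.1% formic acid. Unchanged compound was measured by LC/MS as remaining rate (%) relative to zero time.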

[2] = Metabolic stability test in plasma; type: in vitro ADME, human; settings: LC/MS; for remaining at 10 min: unchanged form after 10 minutes at 37°C in human plasma, read-out: Remaining rate in human plasma (%/10min); for remaining at 1 h: unchanged form after 60 minutes at 37°C in human plasma, read-out: Remaining rate in human plasma (%/60min)
Procedure, shortened: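 Compound in DMSO spiked into human, mouse or hamster plasma, incubated at 37°C for 0, 10 and 60 minutes, then quenched with acetonitrile/formic acid (final 0.1%). Unchanged compound in supernatant quantified by LC/MS; remaining rate (%) relative to time zero.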

[3] = Stability test in buffer (pH 7.4); type: physicochemical; settings: phosphate buffer/acetonitrile 7:3, 100 mM potassium phosphate buffer (pH 7.4) and acetonitrile 7:3 (v/v), LC/MS; for remaining at 10 min: 10 minutes at 37°C, read-out: Buf. remaining rate (%/10min); for remaining at 1 h: 60 minutes at 37°C, read-out: Buf. remaining rate (%/60min)
Procedure, shortened: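 Compound from DMSO solution incubated at 37°C in 100 mM potassium phosphate buffer/acetonitrile 7:3 (v/v) for 0, 10 and 60 min, then quenched with acetonitrile containing formic acid (final 0.1%). Unchanged compound in supernatant quantified by LC/MS; remaining rate (%) = amount at each time / amount at zero time × 100.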

remaining at 10 min [1]	remaining at 1 h [1]	remaining at 10 min [2]	remaining at 1 h [2]	remaining at 10 min [3]	remaining at 1 h [3]	SMILES
0%	0%	39%	0%	99%	99%	CN(C)C(=O)c1cc(CCCC(=O)Oc2ccc(C(=O)OCc3cccnc3)cc2)ccc1NC(=O)c1ccccc1-c1ccc(C(F)(F)F)cc1 [Compound 1-83, 4-[4-(3-dimethylcarbamoyl-4-((4'-trifluoromethylbiphenyl-2-carbonyl)amino}phenyl)butyryloxy]benzoic acid pyridin-3-ylmethyl ester]
1%	0%	21%	0%	99%	101%	CN(C)C(=O)c1cc(CCCC(=O)Oc2ccc(C(=O)OCc3ccncc3)cc2)ccc1NC(=O)c1ccccc1-c1ccc(C(F)(F)F)cc1 [Compound 1-84, 4-[4-(3-dimethylcarbamoyl-4-{(4'-trifluoromethylbiphenyl-2-carbonyl)amino}phenyl)butyryloxy]benzoic acid pyridin-4-ylmethyl ester]
0%	0%	40%	0%	99%	103%	COC(=O)COC(=O)c1ccc(OC(=O)CCCc2ccc(NC(=O)c3ccccc3-c3ccc(C(F)(F)F)cc3)c(C(=O)N(C)C)c2)cc1 [Compound 1-86, 4-[4-(3-dimethylcarbamoyl-4-{(4'-trifluoromethylbiphenyl-2-carbonyl)amino}phenyl)butyryloxy]benzoic acid methoxycarbonylmethyl ester]
0%	0%	39%	0%	102%	101%	CCC(=O)c1ccc(OC(=O)CCCc2ccc(NC(=O)c3ccccc3-c3ccc(C(F)(F)F)cc3)c(C(=O)N(C)C)c2)cc1 [Compound 1-88, 4-(3-dimethylcarbamoyl-4-{(4'-trifluoromethylbiphenyl-2-carbonyl)amino}phenyl)butyric acid 4-propionylphenyl ester]
6%	3%	49%	0%	102%	104%	CN(C)C(=O)c1cc(CCCC(=O)Oc2ccc(C(=O)OCCOCc3ccccc3)cc2)ccc1NC(=O)c1ccccc1-c1ccc(C(F)(F)F)cc1 [Compound 1-89, 4-[4-(3-dimethylcarbamoyl-4-{(4'-trifluoromethylbiphenyl-2-carbonyl)amino}phenyl)butyryloxy]benzoic acid 2-benzyloxyethyl ester]
7%	0%	50%	0%	102%	103%	CN(C)C(=O)c1cc(CCCC(=O)Oc2ccc(C(=O)OCCCOCc3ccccc3)cc2)ccc1NC(=O)c1ccccc1-c1ccc(C(F)(F)F)cc1 [Compound 1-90, 4-[4-(3-dimethylcarbamoyl-4-{(4'-trifluoromethylbiphenyl-2-carbonyl)amino}phenyl)butyryloxy]benzoic acid 3-benzyloxypropyl ester]
0%	0%	41%	9%	99%	102%	Cc1ccc(C(=O)Nc2ccc(CCCC(=O)Oc3ccc(C(=O)OCc4cccnc4)cc3)cc2C(=O)N(C)C)c(-c2ccc(C(F)(F)F)cc2)n1 [Compound 1-94, 4-[4-(3-dimethylcarbamoyl-4-{[6-methyl-2-(4-trifluoromethylphenyl)pyridine-3-carbonyl]amino}phenyl)butyryloxy]benzoic acid pyridin-3-ylmethyl ester]
0%	0%	82%	29%	103%	102%	CN(C)C(=O)c1cc(CCCC(=O)Oc2ccc(-c3nnn(C)n3)cc2)ccc1NC(=O)c1ccccc1-c1ccc(C(F)(F)F)cc1 [Compound 1-95, 4-(3-dimethylcarbamoyl-4-{(4'-trifluoromethylbiphenyl-2-carbonyl)amino}phenyl)butyric acid 4-(2-methyl-2H-tetrazol-5-yl)phenyl ester]
6%	0%	5%	0%	101%	99%	CN(C)C(=O)c1cc(CCCC(=O)Oc2ccc(C(=O)OCc3cccs3)cc2)ccc1NC(=O)c1ccccc1-c1ccc(C(F)(F)F)cc1 [Compound 1-98, 4-[4-(3-dimethylcarbamoyl-4-{(4'-trifluoromethylbiphenyl-2-carbonyl)amino}phenyl)butyryloxy]benzoic acid thiophen-2-ylmethyl ester]

Further lines, the compound ahead of its results:

SMILES	remaining at 10 min [1]	remaining at 1 h [1]	remaining at 10 min [2]	remaining at 1 h [2]	remaining at 10 min [3]	remaining at 1 h [3]
CN(C)C(=O)COC(=O)c1ccc(OC(=O)CCCc2ccc(NC(=O)c3ccccc3-c3ccc(C(F)(F)F)cc3)c(C(=O)N(C)C)c2)cc1 [Compound 1-85, 4-[4-(3-dimethylcarbamoyl-4-{(4'-trifluoromethylbiphenyl-2-carbonyl)amino}phenyl)butyryloxy]benzoic acid dimethylcarbamoylmethyl ester]	0%	0%	61%	4%	103%	102%
CN(C)C(=O)c1cc(CCCC(=O)Oc2ccc(C(=O)OCc3cccc(Cl)c3)cc2)ccc1NC(=O)c1ccccc1-c1ccc(C(F)(F)F)cc1 [Compound 1-87, 4-[4-(3-dimethylcarbamoyl-4-{(4'-trifluoromethylbiphenyl-2-carbonyl)amino}phenyl)butyryloxy]benzoic acid 3-chlorobenzyl ester]	11%	2%	60%	2%	100%	104%
CN(C)C(=O)c1cc(CCCC(=O)Oc2ccc(C(=O)OCCN3CCCC3=O)cc2)ccc1NC(=O)c1ccccc1-c1ccc(C(F)(F)F)cc1 [Compound 1-91, 4-[4-(3-dimethylcarbamoyl-4-{(4'-trifluoromethylbiphenyl-2-carbonyl)amino}phenyl)butyryloxy]benzoic acid 2-(2-oxopyrrolidin-1-yl)ethyl ester]	0%	0%	31%	0%	100%	105%
CN(C)C(=O)c1cc(CCCC(=O)Oc2ccc(C(=O)OCCCO)cc2)ccc1NC(=O)c1ccccc1-c1ccc(C(F)(F)F)cc1 [Compound 1-92, 4-[4-(3-dimethylcarbamoyl-4-{(4'-trifluoromethylbiphenyl-2-carbonyl)amino}phenyl)butyryloxy]benzoic acid 3-hydroxypropyl ester]	0%	0%	71%	6%	102%	107%
CCCC(=O)c1ccc(OC(=O)CCCc2ccc(NC(=O)c3ccccc3-c3ccc(C(F)(F)F)cc3)c(C(=O)N(C)C)c2)cc1 [Compound 1-93, 4-(3-dimethylcarbamoyl-4-{(4'-trifluoromethylbiphenyl-2-carbonyl)amino}phenyl)butyric acid 4-butyrylphenyl ester]	4%	0%	52%	0%	107%	109%
COc1ccc(COC(=O)c2ccc(OC(=O)CCCc3ccc(NC(=O)c4ccccc4-c4ccc(C(F)(F)F)cc4)c(C(=O)N(C)C)c3)cc2)cc1 [Compound 1-96, 4-[4-(3-dimethylcarbamoyl-4-{(4'-trifluoromethylbiphenyl-2-carbonyl)amino}phenyl)butyryloxy]benzoic acid 4-methoxybenzyl ester]	15%	7%	0%	0%	100%	109%
COc1cccc(COC(=O)c2ccc(OC(=O)CCCc3ccc(NC(=O)c4ccccc4-c4ccc(C(F)(F)F)cc4)c(C(=O)N(C)C)c3)cc2)c1 [Compound 1-97, 4-[4-(3-dimethylcarbamoyl-4-{(4'-trifluoromethylbiphenyl-2-carbonyl)amino}phenyl)butyryloxy]benzoic acid 3-methoxybenzyl ester]	13%	7%	49%	0%	100%	104%
